Measured values taken from ChEMBL document CHEMBL5303573, “Mapping human microbiome drug metabolism by gut bacteria and their genes” (Nature, 2019).

Tests used:
[1] = bifidobacterium adolescentis, 12 h, 2 µM
Description: The drug is tested on Bifidobacterium adolescentis strain: ATCC 15703 for biotransformation. The drug concentrations were measured before and after a 12-h incubation by liquid-chromatography-coupled mass spectrometry (LC–MS)

[2] = parabacteroides johnsonii, 12 h, 2 µM
Description: The drug is tested on Parabacteroides johnsonii strain: DSM18315 for biotransformation. The drug concentrations were measured before and after a 12-h incubation by liquid-chromatography-coupled mass spectrometry (LC–MS)

[3] = The drug is tested on Ruminococcus gnavus strain: ATCC29149 for biotransformation. The drug concentrations were measured before and after a 12-h incubation by liquid-chromatography-coupled mass spectrometry (LC–MS); details: mediterraneibacter gnavus, 2 µM
[4] = The drug is tested on Ruminococcus lactaris strain: ATCC29176 for biotransformation. The drug concentrations were measured before and after a 12-h incubation by liquid-chromatography-coupled mass spectrometry (LC–MS); details: 2 µM
[5] = bacteroides thetaiotaomicron, 12 h, 2 µM
Description: The drug is tested on Bacteroides thetaiotaomicron strain: 3731 for biotransformation. The drug concentrations were measured before and after a 12-h incubation by liquid-chromatography-coupled mass spectrometry (LC–MS)

[6] = The drug is tested on Clostridium scindens strain: ATCC35704 for biotransformation. The drug concentrations were measured before and after a 12-h incubation by liquid-chromatography-coupled mass spectrometry (LC–MS); details: 2 µM
[7] = bacteroides fragilis, 12 h, 2 µM
Description: The drug is tested on Bacteroides fragilis strain: NCTC 9343 for biotransformation. The drug concentrations were measured before and after a 12-h incubation by liquid-chromatography-coupled mass spectrometry (LC–MS)

[8] = The drug is tested on Collinsella aerofaciens strain: ATCC25986 for biotransformation. The drug concentrations were measured before and after a 12-h incubation by liquid-chromatography-coupled mass spectrometry (LC–MS); details: 2 µM
[9] = The drug is tested on Providencia stuartii strain: ATCC25827 for biotransformation. The drug concentrations were measured before and after a 12-h incubation by liquid-chromatography-coupled mass spectrometry (LC–MS); details: 2 µM
[10] = The drug is tested on Alistipes indistinctus strain: DSM22520 for biotransformation. The drug concentrations were measured before and after a 12-h incubation by liquid-chromatography-coupled mass spectrometry (LC–MS); details: 2 µM
[11] = The drug is tested on Eubacterium ventriosum strain: ATCC27560 for biotransformation. The drug concentrations were measured before and after a 12-h incubation by liquid-chromatography-coupled mass spectrometry (LC–MS); format: ADME; design: dose 2 uM, timepoint 0 vs 12 hours; details: 2 µM
[12] = The drug is tested on Parabacteroides merdae strain: ATCC43184 for biotransformation. The drug concentrations were measured before and after a 12-h incubation by liquid-chromatography-coupled mass spectrometry (LC–MS); details: 2 µM
[13] = The drug is tested on Clostridium sporogenes strain: ATCC15579 for biotransformation. The drug concentrations were measured before and after a 12-h incubation by liquid-chromatography-coupled mass spectrometry (LC–MS); details: 2 µM
[14] = The drug is tested on Bacteroides coprophilus strain: DSM18228 for biotransformation. The drug concentrations were measured before and after a 12-h incubation by liquid-chromatography-coupled mass spectrometry (LC–MS); details: 2 µM
[15] = The drug is tested on Clostridium ramosum strain: DSM1402 for biotransformation. The drug concentrations were measured before and after a 12-h incubation by liquid-chromatography-coupled mass spectrometry (LC–MS); details: thomasclavelia ramosa, 2 µM
[16] = The drug is tested on Escherichia coli strain: BW25113 for biotransformation. The drug concentrations were measured before and after a 12-h incubation by liquid-chromatography-coupled mass spectrometry (LC–MS); details: 2 µM
[17] = enterocloster bolteae, 12 h, 2 µM
Description: The drug is tested on Clostridium bolteae strain: ATCCBAA-613 for biotransformation. The drug concentrations were measured before and after a 12-h incubation by liquid-chromatography-coupled mass spectrometry (LC–MS)

[18] = The drug is tested on Enterococcus faecalis strain: V583 for biotransformation. The drug concentrations were measured before and after a 12-h incubation by liquid-chromatography-coupled mass spectrometry (LC–MS); details: 2 µM
[19] = The drug is tested on Eubacterium hallii strain: DSM3353 for biotransformation. The drug concentrations were measured before and after a 12-h incubation by liquid-chromatography-coupled mass spectrometry (LC–MS); details: anaerobutyricum hallii, 2 µM

Compound	Bacterial Biotransformation [1]	Bacterial Biotransformation [2]	Bacterial Biotransformation [3]	Bacterial Biotransformation [4]	Bacterial Biotransformation [5]	Bacterial Biotransformation [6]	Bacterial Biotransformation [7]	Bacterial Biotransformation [8]	Bacterial Biotransformation [9]	Bacterial Biotransformation [10]	Bacterial Biotransformation [11]	Bacterial Biotransformation [12]	Bacterial Biotransformation [13]	Bacterial Biotransformation [14]	Bacterial Biotransformation [15]	Bacterial Biotransformation [16]	Bacterial Biotransformation [17]	Bacterial Biotransformation [18]	Bacterial Biotransformation [19]
CN(C)C(=O)Oc1cccc([N+](C)(C)C)c1.[Br-] [NEOSTIGMINE BROMIDE]	Compound NOT metabolized	Compound NOT metabolized	Compound NOT metabolized	Compound NOT metabolized	Compound metabolized	Compound NOT metabolized	Compound metabolized	Compound NOT metabolized	Compound NOT metabolized	Compound NOT metabolized	Compound NOT metabolized	Compound metabolized	Compound NOT metabolized	Compound metabolized	Compound NOT metabolized	Compound NOT metabolized	Compound NOT metabolized	Compound NOT metabolized	
Cc1cc2c(s1)Nc1ccccc1N=C2N1CCN(C)CC1 [OLANZAPINE]	Compound NOT metabolized	Compound NOT metabolized	Compound NOT metabolized	Compound NOT metabolized	Compound NOT metabolized	Compound NOT metabolized	Compound NOT metabolized	Compound NOT metabolized		Compound NOT metabolized	Compound NOT metabolized		Compound NOT metabolized	Compound metabolized	Compound NOT metabolized	Compound NOT metabolized	Compound NOT metabolized	Compound NOT metabolized	Compound NOT metabolized
OC(Cn1cncn1)(Cn1cncn1)c1ccc(F)cc1F [FLUCONAZOLE]	Compound NOT metabolized	Compound metabolized	Compound metabolized	Compound NOT metabolized		Compound metabolized	Compound metabolized	Compound NOT metabolized		Compound NOT metabolized	Compound NOT metabolized	Compound NOT metabolized	Compound metabolized	Compound NOT metabolized	Compound NOT metabolized	Compound NOT metabolized	Compound NOT metabolized	Compound NOT metabolized	
NC(=O)N1c2ccccc2CC(=O)c2ccccc21 [OXCARBAZEPINE]	Compound metabolized		Compound NOT metabolized	Compound metabolized	Compound NOT metabolized	Compound metabolized	Compound NOT metabolized	Compound NOT metabolized	Compound metabolized	Compound metabolized	Compound metabolized	Compound NOT metabolized	Compound metabolized	Compound metabolized	Compound metabolized	Compound metabolized	Compound NOT metabolized	Compound NOT metabolized	Compound NOT metabolized
